Assay results as given in EP4562004B1, “NOVEL 7-SUBSTITUTED INDOLE SULFONAMIDE DERIVATIVES” (F. Hoffmann-La Roche AG, priority 2022, dated 2024).

Biological target: human GPR17 short isoform (Homo sapiens, UniProt Q13304)
Experiment: GPR17 cAMP assay (antagonist mode, TR-FRET cAMP detection)
Type: cell-based
Conditions: CHO-K1 cells stably expressing human GPR17 short isoform; with EC80 concentration of agonist MDL29,951, IBMX 0.5mM, forskolin 15µM; normalized to reference antagonist; read-out: hGPR17 cAMP IC50
Experimental: CHO-K1 cells stably expressing vector containing untagged human GPR17 short isoform (Roche) were cultured at 37°C / 5% CO2 in DMEM (Dulbecco's Modified Eagle Medium):F-12 (1:1) supplemented with 10% foetal bovine serum and 400 µg/ml Geneticin.
Changes in intracellular cyclic adenosine monophosphate (cAMP) levels were quantified using the Nano-TRF Detection Assay kit (Roche Diagnostics, Cat. No. 05214386001). This assay allows for direct cAMP quantification in a homogeneous solution. cAMP is detected based on time-resolved fluorescence energy transfer (TR-FRET) and competitive binding of ruthenylated cAMP and endogenous cAMP to an anti-cAMP monoclonal antibody labeled with AlexaFluor-700. The Ruthenium complex serves as the FRET donor and transfers energy to AlexaFluor-700. The FRET signal is inversely proportional to the cAMP concentration.
CHO-GPR17S cells were detached with Accutase and resuspended in assay buffer consisting of Hank's Balanced Salt Solution (HBSS), 10mM HEPES (4-(2-hydroxyethyl) piperazine-1-ethanesulfonic acid solution) and 0.1% bovine serum albumin (pH 7.4). The cells were seeded in black 384-well plates (Corning) at a density of 10'000 cells / 20µl assay buffer until the addition of compounds.
Test antagonist compounds were serially diluted in dimethyl sulfoxide (DMSO) and spotted in 384-well plates. The compounds were then diluted in HBSS buffer supplemented with an EC80 concentration of MDL29,951 (3-(2-Carboxy-4,6-dichloroindol-3-yl)propionic acid) (GPR17 agonist) plus 3-Isobutyl-1-methylxanthine (IBMX) (0.5mM final concentration) and added to the cells at room temperature. Forskolin (15µM final concentration) was added 5 minutes after the test compounds and the cells were incubated at room temperature for 30 minutes. The assay was stopped by adding cAMP detection mix (containing detergents for cell lysis) for 90 minutes at room temperature.
Cellular cAMP was measured using a Paradigm reader (Molecular Devices). The raw data was used to calculate the FRET signal based on the assay's P-factor as per cAMP kit instructions. The data was normalized to the maximal activity of a reference antagonist and dose response curves were fitted to the percent activity of the test compounds using a sigmoidal dose response model (Genedata Screener).
Results in the hGPR17 cAMP assay are provided for compounds of formula I in Table 1 Table 1: […]

Chain of human GPR17 short isoform (Q13304 29-367): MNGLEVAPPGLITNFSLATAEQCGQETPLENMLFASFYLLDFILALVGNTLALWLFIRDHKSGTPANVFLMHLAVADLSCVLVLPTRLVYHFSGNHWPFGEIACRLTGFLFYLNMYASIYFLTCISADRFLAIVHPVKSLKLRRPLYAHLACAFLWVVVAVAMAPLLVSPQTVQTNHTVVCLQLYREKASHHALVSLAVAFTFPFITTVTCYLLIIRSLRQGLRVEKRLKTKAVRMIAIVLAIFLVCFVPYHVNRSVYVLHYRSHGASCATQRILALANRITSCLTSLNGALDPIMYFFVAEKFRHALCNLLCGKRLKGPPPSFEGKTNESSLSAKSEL

Row | SMILES | IC50
1 | COc1nc(NS(=O)(=O)c2c[nH]c3c(-n4nccn4)c(Cl)ccc23)nc(OC)c1C1CC1C#N (centres unmarked) [Example 18, 6-chloro-N-[5-(2-cyanocyclopropyl)-4,6-dimethoxy-pyrimidin-2-yl]-7-(triazol-2-yl)-1H-indole-3-sulfonamide] | 25 nM
2 | COc1nc(NS(=O)(=O)c2c[nH]c3c(-n4cncn4)c(Cl)ccc23)nc(OC)c1CC(F)F [Example 37, 6-chloro-N-[5-(2,2-difluoroethyl)-4,6-dimethoxy-pyrimidin-2-yl]-7-(1,2,4-triazol-1-yl)-1H-indole-3-sulfonamide] | 60 nM
3 | COc1nc(NS(=O)(=O)c2c[nH]c3c(-n4nc(C)cc4C)cccc23)nc(OC)c1CC(F)F [Example 2, N-[5-(2,2-difluoroethyl)-4,6-dimethoxy-pyrimidin-2-yl]-7-(3,5-dimethylpyrazol-1-yl)-1H-indole-3-sulfonamide] | 32 nM
4 | COc1nc(NS(=O)(=O)c2c[nH]c3c(-n4cc(F)cn4)c(Cl)ccc23)nc(OC)c1OCCF [Example 47, 6-chloro-N-[5-(2-fluoroethoxy)-4,6-dimethoxy-pyrimidin-2-yl]-7-(4-fluoropyrazol-1-yl)-1H-indole-3-sulfonamide] | 26 nM
5 | COc1nc(NS(=O)(=O)c2c[nH]c3c(-n4nccn4)c(F)ccc23)nc(OC)c1OCCF [Example 33, 6-fluoro-N-[5-(2-fluoroethoxy)-4,6-dimethoxy-pyrimidin-2-yl]-7-(triazol-2-yl)-1H-indole-3-sulfonamide] | 141 nM
6 | COc1nc(NS(=O)(=O)c2c[nH]c3c(-n4nccn4)c(Br)ccc23)nc(OC)c1OC(F)F [Example 29, 6-bromo-N-[5-(difluoromethoxy)-4,6-dimethoxy-pyrimidin-2-yl]-7-(triazol-2-yl)-1H-indole-3-sulfonamide] | 22 nM
7 | COc1nc(NS(=O)(=O)c2c[nH]c3c(-n4ccnc4)c(Cl)ccc23)nc(OC)c1OCC(F)F [Example 6, 6-chloro-N-[5-(2,2-difluoroethoxy)-4,6-dimethoxy-pyrimidin-2-yl]-7-imidazol-1-yl-1H-indole-3-sulfonamide] | 50 nM
8 | COc1nc(NS(=O)(=O)c2c[nH]c3c(-n4ccnc4C)cccc23)nc(OC)c1CC(F)F [Example 5, N-[5-(2,2-difluoroethyl)-4,6-dimethoxy-pyrimidin-2-yl]-7-(2-methylimidazol-1-yl)-1H-indole-3-sulfonamide] | 48 nM
9 | COc1nc(NS(=O)(=O)c2c[nH]c3c(-n4cc(F)cn4)c(Cl)ccc23)nc(OC)c1OCC(F)F [Example 45, 6-chloro-N-[5-(2,2-difluoroethoxy)-4,6-dimethoxy-pyrimidin-2-yl]-7-(4-fluoropyrazol-1-yl)-1H-indole-3-sulfonamide] | 25 nM
10 | COc1nc(NS(=O)(=O)c2c[nH]c3c(-n4cccn4)c(Br)ccc23)nc(OC)c1OCC(F)F [Example 75, 6-bromo-N-[5-(2,2-difluoroethoxy)-4,6-dimethoxy-pyrimidin-2-yl]-7-pyrazol-1-yl-1H-indole-3-sulfonamide] | 42 nM
11 | COc1nc(NS(=O)(=O)c2c[nH]c3c(-n4nccn4)c(F)ccc23)nc(OC)c1OC(F)F [Example 34, N-[5-(difluoromethoxy)-4,6-dimethoxy-pyrimidin-2-yl]-6-fluoro-7-(triazol-2-yl)-1H-indole-3-sulfonamide] | 226 nM
12 | COc1nc(NS(=O)(=O)c2c[nH]c3c(-n4ccc(F)n4)c(Cl)ccc23)nc(OC)c1OC(F)F [Example 54, 6-chloro-N-[5-(difluoromethoxy)-4,6-dimethoxy-pyrimidin-2-yl]-7-(3-fluoropyrazol-1-yl)-1H-indole-3-sulfonamide] | 27 nM
13 | COc1nc(NS(=O)(=O)c2c[nH]c3c(-n4cnnc4)c(Cl)ccc23)nc(OC)c1CC(F)F [Example 10, 6-chloro-N-[5-(2,2-difluoroethyl)-4,6-dimethoxy-pyrimidin-2-yl]-7-(1,2,4-triazol-4-yl)-1H-indole-3-sulfonamide] | 100 nM
14 | COc1nc(NS(=O)(=O)c2c[nH]c3c(-n4ccnc4)cccc23)nc(OC)c1CC(F)F [Example 3, N-[5-(2,2-difluoroethyl)-4,6-dimethoxy-pyrimidin-2-yl]-7-imidazol-1-yl-1H-indole-3-sulfonamide] | 300 nM
15 | COc1nc(NS(=O)(=O)c2c[nH]c3c(-n4nccn4)c(Br)ccc23)nc(OC)c1OCC(F)F [Example 30, 6-bromo-N-[5-(2,2-difluoroethoxy)-4,6-dimethoxy-pyrimidin-2-yl]-7-(triazol-2-yl)-1H-indole-3-sulfonamide] | 23 nM
16 | COc1nc(NS(=O)(=O)c2c[nH]c3c(-n4nccn4)c(Cl)ccc23)nc(OC)c1CCC#N [Example 61, 6-chloro-N-[5-(2-cyanoethyl)-4,6-dimethoxy-pyrimidin-2-yl]-7-(triazol-2-yl)-1H-indole-3-sulfonamide] | 29 nM
17 | COc1nc(NS(=O)(=O)c2c[nH]c3c(-n4nccn4)c(Cl)ccc23)nc(OC)c1OC(F)(F)CF [Example 57, 6-chloro-N-[4,6-dimethoxy-5-(1,1,2-trifluoroethoxy)pyrimidin-2-yl]-7-(triazol-2-yl)-1H-indole-3-sulfonamide] | 85 nM

Further lines, results first:

Row | IC50 | SMILES
18 | 35 nM | COc1nc(NS(=O)(=O)c2c[nH]c3c(-n4nccn4)c(C)ccc23)nc(OC)c1OCCF [Example 23, N-[5-(2-fluoroethoxy)-4,6-dimethoxy-pyrimidin-2-yl]-6-methyl-7-(triazol-2-yl)-1H-indole-3-sulfonamide]
19 | 25 nM | COc1nc(NS(=O)(=O)c2c[nH]c3c(-n4nccn4)c(Cl)ccc23)nc(OC)c1OC(F)F [Example 15, 6-chloro-N-[5-(difluoromethoxy)-4,6-dimethoxy-pyrimidin-2-yl]-7-(triazol-2-yl)-1H-indole-3-sulfonamide]
20 | 75 nM | COc1nc(NS(=O)(=O)c2c[nH]c3c(-n4cccn4)c(C)ccc23)nc(OC)c1OC(F)F [Example 76, N-[5-(difluoromethoxy)-4,6-dimethoxy-pyrimidin-2-yl]-6-methyl-7-pyrazol-1-yl-1H-indole-3-sulfonamide]
21 | 248 nM | COc1nc(NS(=O)(=O)c2c[nH]c3c(-n4ccnc4)c(Cl)ccc23)ncc1CC(F)F [Example 8, 6-chloro-N-[5-(2,2-difluoroethyl)-4-methoxy-pyrimidin-2-yl]-7-imidazol-1-yl-1H-indole-3-sulfonamide]
22 | 22 nM | COc1nc(NS(=O)(=O)c2c[nH]c3c(-n4cccn4)c(Cl)ccc23)nc(OC)c1OCC(F)F [Example 65, 6-chloro-N-[5-(2,2-difluoroethoxy)-4,6-dimethoxy-pyrimidin-2-yl]-7-pyrazol-1-yl-1H-indole-3-sulfonamide]
23 | 37 nM | COc1nc(NS(=O)(=O)c2c[nH]c3c(-n4nccn4)c(Cl)ccc23)nc(OC)c1Br [Example 63, N-(5-bromo-4,6-dimethoxy-pyrimidin-2-yl)-6-chloro-7-(triazol-2-yl)-1H-indole-3-sulfonamide]
24 | 29 nM | COc1nc(NS(=O)(=O)c2c[nH]c3c(-n4cccn4)c(C)ccc23)nc(OC)c1CC(F)F [Example 80, N-[5-(2,2-difluoroethyl)-4,6-dimethoxy-pyrimidin-2-yl]-6-methyl-7-pyrazol-1-yl-1H-indole-3-sulfonamide]
25 | 45 nM | COc1nc(NS(=O)(=O)c2c[nH]c3c(-n4nccc4C)c(Cl)ccc23)nc(OC)c1OCC(F)F [Example 46, 6-chloro-N-[5-(2,2-difluoroethoxy)-4,6-dimethoxy-pyrimidin-2-yl]-7-(5-methylpyrazol-1-yl)-1H-indole-3-sulfonamide]
26 | 22 nM | COc1nc(NS(=O)(=O)c2c[nH]c3c(-n4cccn4)c(Cl)ccc23)nc(OC)c1CC(F)F [Example 4, 6-chloro-N-[5-(2,2-difluoroethyl)-4,6-dimethoxy-pyrimidin-2-yl]-7-pyrazol-1-yl-1H-indole-3-sulfonamide]
27 | 40 nM | COc1nc(NS(=O)(=O)c2c[nH]c3c(-n4ccnn4)c(Cl)ccc23)nc(OC)c1CC(F)F [Example 40, 6-chloro-N-[5-(2,2-difluoroethyl)-4,6-dimethoxy-pyrimidin-2-yl]-7-(triazol-1-yl)-1H-indole-3-sulfonamide]
28 | 19 nM | COc1nc(NS(=O)(=O)c2c[nH]c3c(-n4nccn4)c(Cl)ccc23)nc(OC)c1C [Example 62, 6-chloro-N-(4,6-dimethoxy-5-methyl-pyrimidin-2-yl)-7-(triazol-2-yl)-1H-indole-3-sulfonamide]
29 | 203 nM | COc1nc(NS(=O)(=O)c2c[nH]c3c(-n4nccn4)cccc23)nc(OC)c1CC(F)F [Example 13, N-[5-(2,2-difluoroethyl)-4,6-dimethoxy-pyrimidin-2-yl]-7-(triazol-2-yl)-1H-indole-3-sulfonamide]
